Test results as given in ChEMBL document CHEMBL3259757, “B-ring modified aurones as promising allosteric inhibitors of hepatitis C virus RNA-dependent RNA polymerase” (Eur J Med Chem, 2014).

How the values were obtained:
[1] = test system: Hepatitis C virus subtype 1b; assay: Inhibition of HCV J4 genotype 1b NS5Bdelta21 polymerase using homopolymeric RNA at 20 uM by SYBR Green assay
[2] = Inhibition of HCV J4 genotype 1b NS5Bdelta21 polymerase using homopolymeric RNA by SYBR Green assay; parameters: species or system Hepatitis C virus subtype 1b

| inhibition [1] | IC50 [2] | SMILES |
| --- | --- | --- |
| 93.1% |  | CCCCn1cc(/C=C2\Oc3cc(O)cc(O)c3C2=O)c2cccc(OC)c21 |
| 91.6% |  | CCCCn1c(C)c(/C=C2\Oc3cc(O)cc(O)c3C2=O)c2ccccc21 |
| 45% |  | O=C1/C(=C/c2cccc3ccccc23)Oc2cc(O)cc(O)c21 |
| 97% | 4 µM | O=C1/C(=C/c2ccc(-c3cccs3)cc2)Oc2cc(O)cc(O)c21 |
| 93% | 2.7 µM | O=C1/C(=C/c2cn(CCCc3ccccc3)c3ccccc23)Oc2cc(O)cc(O)c21 |
| 92.5% |  | CCCCn1cc(/C=C2\Oc3cc(O)cc(O)c3C2=O)c2cccc(C)c21 |
| 42% |  | O=C1/C(=C/c2ccc3ccccc3n2)Oc2cc(O)cc(O)c21 |
| 27% | > 16 µM | O=C1/C(=C/c2ccco2)Oc2cc(O)cc(O)c21 |
| 90% | 5 µM | CN(C)c1ccc(/C=C2\Oc3cc(O)cc(O)c3C2=O)cc1 |
| 96% | 5.4 µM | O=C1/C(=C/c2ccc(C(F)(F)F)cc2)Oc2cc(O)cc(O)c21 |
| 96% |  | CCCCn1cc(/C=C2\Oc3cc(O)cc(O)c3C2=O)c2cc(C)ccc21 |
| 99.3% | 2.4 µM | O=C1/C(=C/c2cn(Cc3cccc(O)c3)c3ccccc23)Oc2cc(O)cc(O)c21 |
| 55% | > 16 µM | Cn1cccc1/C=C1\Oc2cc(O)cc(O)c2C1=O |
| 81% | 10 µM | O=C1/C(=C/c2ccc3[nH]cnc3c2)Oc2cc(O)cc(O)c21 |
| 94.3% |  | CCCCn1ccc2cc(/C=C3\Oc4cc(O)cc(O)c4C3=O)ccc21 |
| 95% | 3.4 µM | O=C1/C(=C/c2ccc3ccccc3c2)Oc2cc(O)cc(O)c21 |
| 93% | 4 µM | O=C1/C(=C/c2ccc(-c3ccccc3)cc2)Oc2cc(O)cc(O)c21 |
| 95.4% | 2.7 µM | COc1cccc(Cn2cc(/C=C3\Oc4cc(O)cc(O)c4C3=O)c3ccccc32)c1 |

| inhibition [1] | IC50 [2] | SMILES |
| --- | --- | --- |
| 93.8% |  | CCCCn1cc(/C=C2\Oc3cc(O)cc(O)c3C2=O)c2cc(OC)ccc21 |
| 90% | 4 µM | CCCCOc1ccc(/C=C2\Oc3cc(O)cc(O)c3C2=O)c(OCCCC)c1 |
| 33% | > 16 µM | O=C1/C(=C/c2ccc(CO)o2)Oc2cc(O)cc(O)c21 |
| 94.7% | 3 µM | CC(C)=CCn1cc(/C=C2\Oc3cc(O)cc(O)c3C2=O)c2ccccc21 |
| 53.5% |  | CCCCn1cc(/C=C2\Oc3cc(O)cc(O)c3C2=O)c2cc(O)ccc21 |
| 97.8% | 3.1 µM | Cn1c(/C=C2\Oc3cc(O)cc(O)c3C2=O)cc2ccccc21 |
| 98.4% | 3 µM | CCCCn1c(/C=C2\Oc3cc(O)cc(O)c3C2=O)cc2ccccc21 |
| 93% | 5.5 µM | O=C1/C(=C/c2ccc(N3CCCCC3)cc2)Oc2cc(O)cc(O)c21 |
| 80.7% | 8 µM | CC(C)Cn1cc(/C=C2\Oc3cc(O)cc(O)c3C2=O)c2ccccc21 |
| 95.6% | 2.6 µM | Cc1cccc(Cn2cc(/C=C3\Oc4cc(O)cc(O)c4C3=O)c3ccccc32)c1 |
| 96.2% | 2.6 µM | O=C1/C(=C/c2cn(Cc3ccccc3)c3ccccc23)Oc2cc(O)cc(O)c21 |
| 81% |  | CCCCOc1ccc(/C=C2\Oc3cc(O)cc(O)c3C2=O)cc1 |
| 98.9% | 2.3 µM | CCCCn1cc(/C=C2\Oc3cc(O)cc(O)c3C2=O)c2cccc(O)c21 |
| 93% | 3.3 µM | O=C1/C(=C/c2cn(CC3CCCCC3)c3ccccc23)Oc2cc(O)cc(O)c21 |
| 93.9% | 3.2 µM | O=C1/C(=C/c2cn(CCc3ccccc3)c3ccccc23)Oc2cc(O)cc(O)c21 |
| 70% |  | O=C(O)CCCn1cc(/C=C2\Oc3cc(O)cc(O)c3C2=O)c2ccccc21 |
| 90% | 6 µM | Cn1cc(/C=C2\Oc3cc(O)cc(O)c3C2=O)c2ccccc21 |
| 96% | 2.4 µM | O=C1/C(=C/c2cn(Cc3cccc(Br)c3)c3ccccc23)Oc2cc(O)cc(O)c21 |

| SMILES | inhibition [1] | IC50 [2] |
| --- | --- | --- |
| O=C1/C(=C/c2cnc[nH]2)Oc2cc(O)cc(O)c21 | 39% | > 16 µM |
